US12077503B2, “Substituted cyclic amides and their use as herbicides” (FMC CORPORATION, priority 2015, dated 2024)

Assays:
Format in all cases: in vivo
[1] = tested on: redroot pigweed (Amaranthus retroflexus); assay: Test G Post-Emergence Protocol; settings: Amaranthus retroflexus, post-emergence, 312 h, read-out: Pigweed, Redroot damage rating
Procedure, shortened: (§1)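 Damage was rated 13 days after treatment from 0 (none) to 100 (plant killed). Compound was applied as a spray at 15.625, 62.5 or 250 g/ha in 50:50 acetone/water containing 0.5% Tween 20, onto 8-day-old potted plants kept in a glasshouse (24/16 °C, 14 h light, 65% humidity).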

[2] = tested on: velvetleaf (Abutilon theophrasti); assay: Test G Post-Emergence Protocol; settings: Abutilon theophrasti, post-emergence, 312 h, read-out: Velvetleaf damage rating
Procedure, shortened: as §1

[3] = tested on: barnyardgrass (Echinochloa crus-galli); assay: Test G Post-Emergence Protocol; settings: Echinochloa crus-galli, post-emergence, 312 h, read-out: Barnyardgrass damage rating
Procedure, shortened: as §1

[4] = tested on: giant foxtail (Setaria faberi); assay: Test G Post-Emergence Protocol; settings: Setaria faberi, post-emergence, 312 h, read-out: Foxtail, Giant damage rating
Procedure, shortened: as §1

corn (Zea mays) [5] = assay: Test G Post-Emergence Protocol; settings: Zea mays, post-emergence, 312 h, read-out: Corn damage rating
Procedure, shortened: as §1

[6] = tested on: ivy-leaved morning glory (Ipomoea hederacea); assay: Test G Post-Emergence Protocol; settings: Ipomoea, post-emergence, 312 h, read-out: Morningglory, Ivy-leaved damage rating
Procedure, shortened: as §1

[7] = tested on: redroot pigweed (Amaranthus retroflexus); assay: Test G Pre-Emergence Protocol; settings: Amaranthus retroflexus, pre-emergence, 312 h, evaluated after 13 days
Procedure, shortened: (§2)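 One day after sowing, pots are treated with a spray of test compound formulated in acetone/water 50:50 plus 0.5% Tween 20, giving 15.625, 62.5 or 250 g/ha. Evaluation on a 0–100 damage scale follows 13 days of glasshouse growth.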

[8] = tested on: velvetleaf (Abutilon theophrasti); assay: Test G Pre-Emergence Protocol; settings: Abutilon theophrasti, pre-emergence, 312 h, evaluated after 13 days
Procedure, shortened: as §2

[9] = tested on: barnyardgrass (Echinochloa crus-galli); assay: Test G Pre-Emergence Protocol; settings: Echinochloa crus-galli, pre-emergence, 312 h, evaluated after 13 days
Procedure, shortened: as §2

[10] = tested on: giant foxtail (Setaria faberi); assay: Test G Pre-Emergence Protocol; settings: Setaria faberi, pre-emergence, 312 h, evaluated after 13 days
Procedure, shortened: as §2

corn (Zea mays) [11] = assay: Test G Pre-Emergence Protocol; settings: Zea mays, pre-emergence, 312 h, evaluated after 13 days
Procedure, shortened: as §2

[12] = tested on: ivy-leaved morning glory (Ipomoea hederacea); assay: Test G Pre-Emergence Protocol; settings: Ipomoea, pre-emergence, 312 h, evaluated after 13 days
Procedure, shortened: as §2

[13] = 15.625 g ai/ha, evaluated after 13 days (100=total damage to plant; 0=no damage to plant)
[14] = 62.5 g ai/ha, evaluated after 13 days, 100=total damage to plant, 0=no damage to plant
[15] = 250 g ai/ha, evaluated after 13 days, 100=total damage to plant, 0=no damage to plant

`CC(C)S(=O)(=O)c1ccccc1NC(=O)[C@H]1C(=O)N(C)C[C@@H]1c1ccc(C(F)(F)F)cc1` (racemic) [Compound 1665] gave a pest or weed control at 15.625 g/ha [1, 13] of 0%, a pest or weed control at 62.5 g/ha [1, 14] of 0% and a pest or weed control at 250 g/ha [1, 15] of 40%. The pest or weed control at 15.625 g/ha [2, 13] was 0%, the pest or weed control at 62.5 g/ha [2, 14] was 0% and the pest or weed control at 250 g/ha [2, 15] was 0%. For the same compound, the pest or weed control at 15.625 g/ha [3, 13] was 0%, the pest or weed control at 62.5 g/ha [3, 14] was 0% and the pest or weed control at 250 g/ha [3, 15] was 40%. The pest or weed control at 15.625 g/ha [4, 13] was 0%, the pest or weed control at 62.5 g/ha [4, 14] was 0% and the pest or weed control at 250 g/ha [4, 15] was 60%. For the same compound, the plant injury at 15.625 g/ha (corn (Zea mays) [5]; [13]) was 0%, the plant injury at 62.5 g/ha (corn (Zea mays) [5]; [14]) was 0% and the plant injury at 250 g/ha (corn (Zea mays) [5]; [15]) was 0%. It also gave a pest or weed control at 15.625 g/ha [6, 13] of 0%, a pest or weed control at 62.5 g/ha [6, 14] of 0% and a pest or weed control at 250 g/ha [6, 15] of 0%. It also gave a pest or weed control at 15.625 g/ha ([7]; 15.625 g ai/ha, read-out: Pigweed, Redroot damage rating (100=total damage to plant; 0=no damage to plant)) of 0%, a pest or weed control at 62.5 g/ha ([7]; 62.5 g ai/ha, 100=total damage to plant, 0=no damage to plant, read-out: Pigweed, Redroot damage rating) of 0% and a pest or weed control at 250 g/ha ([7]; 250 g ai/ha, read-out: Pigweed, Redroot damage rating (100=total damage to plant; 0=no damage to plant)) of 20%. For the same compound, the pest or weed control at 15.625 g/ha ([8]; 15.625 g ai/ha, read-out: Velvetleaf damage rating (100=total damage to plant; 0=no damage to plant)) was 0%, the pest or weed control at 62.5 g/ha ([8]; 62.5 g ai/ha, 100=total damage to plant, 0=no damage to plant, read-out: Velvetleaf damage rating) was 0% and the pest or weed control at 250 g/ha ([8]; 250 g ai/ha, read-out: Velvetleaf damage rating (100=total damage to plant; 0=no damage to plant)) was 0%. It also gave a pest or weed control at 15.625 g/ha ([9]; 15.625 g ai/ha, read-out: Barnyardgrass damage rating (100=total damage to plant; 0=no damage to plant)) of 0%, a pest or weed control at 62.5 g/ha ([9]; 62.5 g ai/ha, 100=total damage to plant, 0=no damage to plant, read-out: Barnyardgrass damage rating) of 0% and a pest or weed control at 250 g/ha ([9]; 250 g ai/ha, read-out: Barnyardgrass damage rating (100=total damage to plant; 0=no damage to plant)) of 20%. The pest or weed control at 15.625 g/ha ([10]; 15.625 g ai/ha, read-out: Foxtail, Giant damage rating (100=total damage to plant; 0=no damage to plant)) was 0%, the pest or weed control at 62.5 g/ha ([10]; 62.5 g ai/ha, 100=total damage to plant, 0=no damage to plant, read-out: Foxtail, Giant damage rating) was 0% and the pest or weed control at 250 g/ha ([10]; 250 g ai/ha, read-out: Foxtail, Giant damage rating (100=total damage to plant; 0=no damage to plant)) was 80%. The plant injury at 15.625 g/ha (corn (Zea mays) [11]; 15.625 g ai/ha, read-out: Corn damage rating (100=total damage to plant; 0=no damage to plant)) was 0%, the plant injury at 62.5 g/ha (corn (Zea mays) [11]; 62.5 g ai/ha, 100=total damage to plant, 0=no damage to plant, read-out: Corn damage rating) was 0% and the plant injury at 250 g/ha (corn (Zea mays) [11]; 250 g ai/ha, read-out: Corn damage rating (100=total damage to plant; 0=no damage to plant)) was 0%. The pest or weed control at 15.625 g/ha ([12]; 15.625 g ai/ha, read-out: Morningglory, Ivy-leaved damage rating (100=total damage to plant; 0=no damage to plant)) was 0%, the pest or weed control at 62.5 g/ha ([12]; 62.5 g ai/ha, 100=total damage to plant, 0=no damage to plant, read-out: Morningglory, Ivy-leaved damage rating) was 0% and the pest or weed control at 250 g/ha ([12]; 250 g ai/ha, read-out: Morningglory, Ivy-leaved damage rating (100=total damage to plant; 0=no damage to plant)) was 20%.
